Results taken from patent US7846946B2, “Heteroatom-linked substituted piperidines and derivatives thereof useful as histamine H3 antagonists” (Schering Plough Corporation, priority 2005, dated 2010).

Assays:
[1] = target: T1, H3 receptors (guinea pig brain) (Cavia porcellus, UniProt Q9JI35); assay: H3-receptor binding assay, guinea pig receptor; conditions: radioligand [3H]R-α-methyl histamine or [3H]Nα-methyl histamine
T1 construct: The brain tissue was homogenized with a solution of 50 mM Tris, pH 7.5; from tissue; host or cells: guinea pig brain membranes
T1 sequence (Q9JI35 whole entry): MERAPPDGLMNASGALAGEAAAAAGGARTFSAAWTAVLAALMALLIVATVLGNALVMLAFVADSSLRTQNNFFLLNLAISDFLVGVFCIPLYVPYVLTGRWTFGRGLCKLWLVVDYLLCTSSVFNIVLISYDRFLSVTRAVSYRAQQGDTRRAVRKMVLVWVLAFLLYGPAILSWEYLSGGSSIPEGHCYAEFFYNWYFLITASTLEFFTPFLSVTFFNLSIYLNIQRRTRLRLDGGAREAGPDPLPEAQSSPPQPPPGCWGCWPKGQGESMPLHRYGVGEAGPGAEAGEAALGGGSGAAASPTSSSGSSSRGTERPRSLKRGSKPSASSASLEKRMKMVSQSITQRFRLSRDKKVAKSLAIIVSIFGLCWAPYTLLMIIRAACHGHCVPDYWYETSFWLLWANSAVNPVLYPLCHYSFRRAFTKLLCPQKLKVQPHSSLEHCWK
Experimental: (§1) General Procedure for H3-Receptor Binding Assay
(§2) The source of the H3 receptors in this experiment was guinea pig brain. Alternatively, the source of H3 receptors was recombinant human receptor, expressed in HEK-293 (human embryonic kidney) cells.
The animals weighed 400-600 g. The brain tissue was homogenized with a solution of 50 mM Tris, pH 7.5. The final concentration of tissue in the homogenization buffer was 10% w/v. The homogenates were centrifuged at 1,000×g for 10 min. in order to remove clumps of tissue and debris. The resulting supernatants were then centrifuged at 50,000×g for 20 min. in order to sediment the membranes, which were next washed three times in homogenization buffer (50,000×g for 20 min. each). The membranes were frozen and stored at −70° C. until needed.
All compounds to be tested were dissolved in DMSO and then diluted into the binding buffer (50 mM Tris, pH 7.5) such that the final concentration was 2 μg/ml with 0.1% DMSO. Membranes were then added (400 μg of protein, 5 μg in the case of recombinant human receptor) to the reaction tubes. […] Bound ligand was separated from unbound ligand by filtration, and the amount of radioactive ligand bound to the membranes was quantitated by liquid scintillation spectrometry. […]

[2] = target: T2, recombinant human H3 receptor, expressed in HEK-293 cells (Homo sapiens, UniProt Q9Y5N1); assay: H3-receptor binding assay, recombinant human receptor; conditions: recombinant human receptor assay (HEK-293)
T2 construct: expressed in transfected cells; host or cells: HEK-293 (human embryonic kidney) cells
T2 sequence (Q9Y5N1 whole entry): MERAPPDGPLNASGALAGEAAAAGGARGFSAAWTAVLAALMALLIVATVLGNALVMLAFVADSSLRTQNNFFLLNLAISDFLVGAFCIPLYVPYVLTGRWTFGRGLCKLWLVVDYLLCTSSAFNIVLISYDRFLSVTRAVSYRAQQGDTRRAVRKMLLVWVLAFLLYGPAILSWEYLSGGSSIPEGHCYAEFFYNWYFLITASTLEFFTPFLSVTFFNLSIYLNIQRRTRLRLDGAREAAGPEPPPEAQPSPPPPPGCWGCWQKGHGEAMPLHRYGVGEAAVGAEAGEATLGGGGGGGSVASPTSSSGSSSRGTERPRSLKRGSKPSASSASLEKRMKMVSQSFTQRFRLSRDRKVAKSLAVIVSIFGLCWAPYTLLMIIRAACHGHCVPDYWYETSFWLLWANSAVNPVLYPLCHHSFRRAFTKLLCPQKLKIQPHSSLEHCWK
Experimental: as §1, §2
All compounds to be tested were dissolved in DMSO and then diluted into the binding buffer (50 mM Tris, pH 7.5) such that the final concentration was 2 μg/ml with 0.1% DMSO. Membranes were then added (400 μg of protein, 5 μg in the case of recombinant human receptor) to the reaction tubes. The reaction was started by the addition of 3 nM [^3H]R-α-methyl histamine (8.8 Ci/mmol) or 3 nM [^3H]Na^α-methyl histamine (80 Ci/mmol) and continued under incubation at 30° C. for 30 min. Bound ligand was separated from unbound ligand by filtration, and the amount of radioactive ligand bound to the membranes was quantitated by liquid scintillation spectrometry. All incubations were performed in duplicate and the standard error was always less than 10%. Compounds that inhibited more than 70% of the specific binding of radioactive ligand to the receptor were serially diluted to determine a Ki (nM).

Row | SMILES | Ki [1] | Ki [2]
1 | Cc1cc(C(=O)NCc2cccnc2NC2CCN(C(=O)C3CCN(Cc4ccnc(N)c4)CC3)CC2)no1 [Example 11] | 0.2 nM | –
2 | Nc1cc(CN2CCC(C(=O)N3CCC(NCc4ccc(F)cc4F)CC3)CC2)ccn1 [Example 256] | – | 0.7 nM
